For assay [1], the target named is 5-hydroxytryptamine receptor 2A (Homo sapiens, UniProt P28223). The assay is described as follows: Binding affinity against 5-hydroxytryptamine 2A receptor using [125I]DOI radioligand.
Assay [2] concerns the target Serotonin 2 receptors; 5-HT2a & 5-HT2c (Homo sapiens) (UniProt P28223+P28335). The assay can be described thus: Selectivity ratio of binding affinity of 5-hydroxytryptamine 2A receptor to that of 5-hydroxytryptamine 2C receptor. Type of assay: protein assay.
Assay [3] concerns the target T1, 5-hydroxytryptamine receptor 2C (Homo sapiens, UniProt P28335).
T1 sequence (P28335 whole entry): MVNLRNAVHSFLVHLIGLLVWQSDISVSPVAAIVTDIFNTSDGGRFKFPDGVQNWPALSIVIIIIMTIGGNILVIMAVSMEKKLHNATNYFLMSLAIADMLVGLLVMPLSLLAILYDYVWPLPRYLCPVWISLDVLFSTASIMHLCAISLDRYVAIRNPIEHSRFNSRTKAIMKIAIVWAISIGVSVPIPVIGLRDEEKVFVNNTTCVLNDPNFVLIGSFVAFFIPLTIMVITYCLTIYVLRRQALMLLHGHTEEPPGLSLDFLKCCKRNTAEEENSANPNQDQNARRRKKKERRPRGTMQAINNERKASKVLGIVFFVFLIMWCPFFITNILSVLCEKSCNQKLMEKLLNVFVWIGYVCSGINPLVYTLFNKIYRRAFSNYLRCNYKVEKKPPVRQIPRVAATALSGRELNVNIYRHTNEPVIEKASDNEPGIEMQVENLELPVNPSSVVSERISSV
The assay can be described thus: Binding affinity against 5-hydroxytryptamine 2C receptor using [125I]DOI radioligand.

Assay [4] addresses T2, 5-hydroxytryptamine receptor 2C (Homo sapiens) (UniProt P28335).
T2 sequence (whole entry): T1 sequence (P28335 whole entry)
The assay is described as follows: Intrinsic efficacy against 5-hydroxytryptamine 2C receptor.

Assay [5] has as its system Mus musculus. The assay can be described thus: Anxiolytic activity (latency to fight) in mice after administration (3 mg/kg) using shock-induced aggression assay. Type of assay: functional.
The subject of assay [6] is Mus musculus. The assay can be described thus: Anxiolytic activity (latency to fight) in mice after administration (30 mg/kg) using shock-induced aggression assay. Type of assay: functional.
In assay [7] the test system is Mus musculus. The assay is described as follows: Ataxia (time on rotaing rod) in mice after administration (3 mg/kg) using standard Rotarod assay. Format: functional. For orientation: Falling from the rotarod earlier than controls is read as motor impairment.
Assay [8] deals with Mus musculus. The assay can be described thus: Ataxia (time on rotaing rod) in mice after administration (30 mg/kg) using standard Rotarod assay. Type of assay: functional.
Assay [9] concerns the target T1, 5-hydroxytryptamine receptor 2C. The assay is described as follows: Binding affinity of compound towards 5-hydroxytryptamine 2C receptor.
The subject of assay [10] is Mus musculus. The assay is described as follows: Anxiolytic activity (latency to fight) in mice after administration (0.3 mg/kg) using shock-induced aggression assay. Format: functional.
Assay [11] relates to Mus musculus. The assay is described as follows: Anxiolytic activity (latency to fight) in mice after administration (3.0 mg/kg) using shock-induced aggression assay. Format: functional.
Assay [12] has as its system Mus musculus. The assay can be described thus: Ataxia (time on rotaing rod) in mice after administration (0.3 mg/kg) using standard Rotarod assay. Format: functional.

Chain of Serotonin 2 receptors; 5-HT2a & 5-HT2c (Homo sapiens) (P28223 whole entry, looked up, one chain of several): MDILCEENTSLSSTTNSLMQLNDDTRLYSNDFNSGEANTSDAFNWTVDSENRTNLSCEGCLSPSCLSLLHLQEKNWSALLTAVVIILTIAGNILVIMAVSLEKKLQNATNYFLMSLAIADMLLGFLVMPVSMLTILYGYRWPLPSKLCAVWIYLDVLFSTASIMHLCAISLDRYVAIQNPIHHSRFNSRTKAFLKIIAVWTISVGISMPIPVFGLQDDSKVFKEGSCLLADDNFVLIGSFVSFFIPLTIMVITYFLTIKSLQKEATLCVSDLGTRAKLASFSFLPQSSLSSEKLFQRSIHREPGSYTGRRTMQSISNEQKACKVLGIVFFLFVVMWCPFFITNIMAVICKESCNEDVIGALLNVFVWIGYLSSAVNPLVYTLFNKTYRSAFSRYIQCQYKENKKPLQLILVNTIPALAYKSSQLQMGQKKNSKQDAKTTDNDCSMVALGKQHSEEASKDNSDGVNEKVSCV
Chain of 5-hydroxytryptamine receptor 2A (P28223 whole entry): as the sequence (P28223 whole entry, looked up, one chain of several) above

With `Clc1ccc(-c2cc(Cl)cc3c2N2CCNCCC2C3)c(Cl)c1` (configuration not stated), the Ki in assay [1] amounted to 0.426 µM; in assay [3], 0.386 µM. For the same molecule, the Selectivity ratio in assay [2] was found to be 1.1.
As for `FC(F)(F)c1ccccc1-c1cccc2c1N1CCNCCC1C2` (single isomer, unassigned; (-)) [listing 1 of 2 here], in assay [2], the Selectivity ratio was found to be 3.21.
The same measure, in the same setting: as for `CCOc1ccccc1-c1cc(Cl)cc2c1N1CCNCCC1C2` (stereo in doubt) [listing 1 of 2 here], the figure is 1.99.
For `Clc1cc2c(c(-c3ccccc3Cl)c1)N1CCNCCC1C2` (configuration not stated), the results for the Ki in [1] and in [3] were 0.102 µM and 0.057 µM, respectively. For the same molecule, in [2], the Selectivity ratio was found to be 1.79.
Taken in the same sequence, the figures for `CCOc1ccc(-c2cc(Cl)cc3c2N2CCNCCC2C3)cc1` (configuration not stated) were 0.182 µM, 0.265 µM and 0.69.
In the case of `CCOc1ccccc1-c1cc(Cl)cc2c1N1CCNCCC1C2` (stereo in doubt; 22a), the values for the Ki in assay [1] and in assay [3] were 0.218 µM and 0.054 µM, respectively.
With `Fc1ccccc1-c1cc(Cl)cc2c1N1CCNCCC1C2` (configuration not stated), the results for the Ki in assay [1] and in assay [3] were 0.141 µM and 0.223 µM, respectively. Further, the Selectivity ratio in assay [2] was 0.63.
Turning to `c1ccc2c3c([nH]c2c1)CCNCC3`, the Ki in [1] came out at 0.01 µM; in assay [3] it was 0.0061 µM. Further, in assay [4], the Intrinsic efficacy stood at 66%.
For `Cc1ccccc1-c1cccc2c1N1CCNCCC1C2` (stereo in doubt; (-)) [listing 1 of 2 here], the inhibition constant (Ki) in assay [1] came out at 0.136 µM; in [3], 0.039 µM.
Take `c1cc2c3c(c1)c1c(n3CCO2)CCNCC1`: the Ki worked out at 0.0041 µM in assay [1] and 0.0043 µM in assay [3]. In assay [4], the Intrinsic efficacy was determined as 105%.
In the case of `O=C(c1c2n(c3ccccc13)CCNCC2)C(F)(F)F`, the Ki in assay [1] was found to be 0.04 µM; in [3], 0.054 µM. Further, the Selectivity ratio in assay [2] is 0.7.
The corresponding values for `COc1ccc(Cl)cc1-c1cc(Cl)cc2c1N1CCNCCC1C2` (configuration not stated) are 0.756 µM, 0.793 µM and 0.95.
Turning to `FC(F)(F)c1ccccc1-c1cccc2c1N1CCNCCC1C2` (single isomer, unassigned; (-)) [listing 2 of 2 here], the Ki in assay [1] was determined as 0.045 µM; in assay [3], 0.014 µM.
Consider `c1ccc2c(c1)cc1n2CCNCC1`, for which the Ki in assay [1] was 0.018 µM; in assay [3] it was 0.0048 µM. The Latency in the assay with Mus musculus [5] turned out to be 12.8 s; in the assay with Mus musculus [6], 27 s; in the assay with Mus musculus [7], 102 s; in the assay on Mus musculus [8], 87.6 s. Besides, the Selectivity ratio in [2] amounted to 3.8. In [4], this molecule had an Intrinsic efficacy of 80%.
With `CN1CCc2cc3ccccc3n2CC1`, the Ki in [1] amounted to 0.028 µM; in [3], 0.013 µM. For the same molecule, the Intrinsic efficacy in assay [4] was found to be 49%.
On to `C[C@H](N)Cn1ccc2ccc(F)cc21`, for which the Ki in [9] stood at 0.004 µM.
For `CCOc1ccccc1-c1cc(Cl)cc2c1N1CCNCCC1C2` (single isomer, unassigned; (+)) [listing 1 of 2 here], the Selectivity ratio in assay [2] is 3.63.
Regarding `CCOc1ccccc1-c1cc(Cl)cc2cc3n(c12)CCNCC3`, the Ki in assay [1] came to 0.032 µM; in assay [3] it was 0.112 µM.
As for `O=Cc1c2n(c3ccccc13)CCNCC2`, the Ki in assay [1] was found to be 0.029 µM; in [3], 0.012 µM. In addition, the Selectivity ratio in assay [2] was 2.4.
As to `Clc1ccc(Cl)c(-c2cc(Cl)cc3c2N2CCNCCC2C3)c1` (configuration not stated), the results for the Ki in assay [1] and in assay [3] were 0.07 µM and 0.16 µM, respectively. The Selectivity ratio in assay [2] turned out to be 0.44.
`Fc1ccc(-c2cc(Cl)cc3c2N2CCNCCC2C3)cc1` (configuration not stated): the results for the Ki in assay [1] and in assay [3] were 0.146 µM and 0.31 µM, respectively. For the same molecule, the Selectivity ratio in assay [2] came out at 0.47.
In the case of `CCOc1ccccc1-c1cccc2c1N1CCNCCC1C2` (stereo in doubt; 20a), the Ki in [1] stood at 0.44 µM; in assay [3] it was 0.11 µM.
Regarding `CCOc1ccccc1-c1cccc2c1N1CCNCCC1C2` (single isomer, unassigned; (-)) [listing 1 of 2 here], the Selectivity ratio in [2] came to 5.
Turning to `CCOc1ccccc1-c1cccc2c1N1CCNCCC1C2` (single isomer, unassigned; (-)) [listing 2 of 2 here], the Ki in assay [1] was found to be 0.98 µM; in [3], 0.196 µM.
Taken in the same sequence, the figures for `CCOc1ccccc1-c1ccc2c(c1)N1CCNCCC1C2` (configuration not stated) were 1.58 µM and 0.932 µM.
Consider `Cc1ccccc1-c1cccc2c1N1CCNCCC1C2` (stereo in doubt; (-)) [listing 2 of 2 here], for which, in assay [2], the Selectivity ratio was 3.45.
As to `FC(F)(F)c1ccccc1-c1cccc2c1N1CCNCCC1C2` (single isomer, unassigned; (+)) [listing 1 of 2 here], the Selectivity ratio in assay [2] came to 1.81.
In the case of `c1ccc2c(c1)CC1CCNCCN21` (configuration not stated), the results for the Ki in assay [1] and in [3] were 0.805 µM and 0.721 µM, respectively.
Take `Cn1c2c(c3ccccc31)CCNCC2` [PNU-22394]: the inhibition constant (Ki) in [1] and in assay [3] was 0.019 µM in each case. The molecule further had an Intrinsic efficacy in assay [4] of 83%.
Regarding `CCOc1ccccc1-c1cccc2c1N1CCNCCC1C2` (single isomer, unassigned; (+)) [listing 1 of 2 here], the Selectivity ratio in assay [2] turned out to be 4.45.
For `Clc1c2n(c3ccccc13)CCNCC2`, the Ki in assay [1] stood at 0.0065 µM; in [3] it was 0.0047 µM. The Selectivity ratio in [2] was 1.4.
Regarding `CCOc1cccc(-c2cc(Cl)cc3c2N2CCNCCC2C3)c1` (configuration not stated), the Ki is 0.233 µM in [1] and 0.472 µM in [3]. In assay [2], the Selectivity ratio was found to be 0.49.
As to `N#Cc1c2n(c3ccccc13)CCNCC2`, the figures for the Ki in assay [1] and in [3] were 0.083 µM and 0.085 µM, respectively. The Selectivity ratio in assay [2] was 1.
With `CCOc1ccccc1-c1ccc2c(c1)CC1CCNCCN21` (configuration not stated), the Ki is more than 10 µM in [1] and 4.81 µM in assay [3].
Take `Cc1ccccc1-c1cccc2c1N1CCNCCC1C2` (stereo in doubt; (+)) [listing 1 of 2 here]: the Selectivity ratio in [2] was 6.37.
As for `Cc1ccccc1-c1cc(Cl)cc2c1N1CCNCCC1C2` (configuration not stated), the Ki in assay [1] was 0.088 µM; in assay [3], 0.043 µM. The Selectivity ratio in assay [2] was determined as 2.05.
Regarding `CCOc1ccccc1-c1cc(Cl)cc2c1N1CCNCCC1C2` (stereo in doubt) [listing 2 of 2 here], the Ki in assay [1] was found to be 0.354 µM; in assay [3], 0.178 µM.
Taken in the same sequence, the figures for `CCOc1ccccc1-c1cc(Cl)cc2c1N1CCNCCC1C2` (single isomer, unassigned; (+)) [listing 2 of 2 here] were 0.116 µM and 0.032 µM.
Turning to `NC(=O)c1c2n(c3ccccc13)CCNCC2`, the Ki in [1] worked out at 0.046 µM; in assay [3], 0.074 µM. Further, the Selectivity ratio in [2] stood at 0.6.
Turning to `CCOc1ccccc1-c1cccc2c1N1CCNCCC1C2` (single isomer, unassigned; (+)) [listing 2 of 2 here], the Ki in [1] came out at 0.458 µM; in assay [3], 0.103 µM.
Taken in the same sequence, the figures for `Cc1ccccc1-c1cccc2c1N1CCNCCC1C2` (stereo in doubt; (+)) [listing 2 of 2 here] were 0.191 µM and 0.03 µM.
As for `NC(=O)C(=O)c1c2n(c3ccccc13)CCNCC2`, the Ki in assay [1] was found to be 0.316 µM; in [3], 0.136 µM. Further, the Selectivity ratio in [2] was determined as 2.3.
For the molecule `Cc1nnc2n1-c1ccc(Cl)cc1C(c1ccccc1)=NC2` [ALPRAZOLAM], the Latency stood at 11.9 s with Mus musculus [10], 35.2 s in the assay with Mus musculus [11], 74.2 s with Mus musculus [12] and 14.5 s in the assay on Mus musculus [7].
With `CCCN1CCc2cc3ccccc3n2CC1`, the figures for the Ki in [1] and in assay [3] were 0.056 µM and 0.064 µM, respectively.
Take `Clc1ccccc1-c1cccc2c1N1CCNCCC1C2` (configuration not stated): the Ki in assay [1] is 0.082 µM; in assay [3], 0.023 µM. Moreover, the Selectivity ratio in assay [2] stood at 3.57.
`Cc1c2n(c3ccccc13)CCNCC2`: the Ki in [1] was 0.012 µM; in assay [3], 0.0068 µM. For the same molecule, the Selectivity ratio in assay [2] came to 1.8.
Consider `CCN1CCc2cc3ccccc3n2CC1`, for which the inhibitory constant (Ki) was determined as 0.03 µM in assay [1] and 0.038 µM in assay [3]. Further, the Intrinsic efficacy in assay [4] was found to be 66%.
On to `FC(F)(F)c1ccccc1-c1cccc2c1N1CCNCCC1C2` (single isomer, unassigned; (+)) [listing 2 of 2 here], for which the Ki was determined as 0.107 µM in [1] and 0.059 µM in assay [3].

The Ki is a measure of affinity in units of concentration, obtained from inhibition or displacement.

These data come from ChEMBL document CHEMBL1136110, “2,3,4,5-tetrahydro- and 2,3,4,5,11,11a-hexahydro-1H-[1,4]diazepino[1,7-a]indoles: new templates for 5-HT(2C) agonists” (Bioorg Med Chem Lett, 2003).
